pKi: −log10 of the molar value. Where a SMILES comes first, the peptide text is derived from it. [ ]: non-standard residue; d: D form. ξ: configuration not given here. Ile(3ξ) = CCC(C)[C@H](N)C(=O)O

The pKi is −log10 of the Ki, conventionally taken in molar units. A high value points to a small Ki.

For the experiment, the target named is T1, Pituitary adenylate cyclase-activating polypeptide (Rattus norvegicus, UniProt P13589).
T1 sequence (P13589 whole entry): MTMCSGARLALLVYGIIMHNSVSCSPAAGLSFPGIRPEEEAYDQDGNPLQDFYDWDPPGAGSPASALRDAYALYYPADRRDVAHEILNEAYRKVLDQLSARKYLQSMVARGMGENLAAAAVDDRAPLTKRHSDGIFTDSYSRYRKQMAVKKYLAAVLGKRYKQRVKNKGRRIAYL
As for `CC[C@H](C)[C@H](NC(=O)CNC(=O)[C@H](CC(=O)O)NC(=O)[C@H](CO)NC(=O)[C@@H](N)Cc1ccccc1)C(=O)N[C@@H](Cc1ccccc1)C(=O)N[C@H](C(=O)N[C@@H](CC(=O)O)C(=O)N[C@@H](CO)C(=O)N[C@@H](Cc1ccc(O)cc1)C(=O)N[C@@H](CO)C(=O)N[C@@H](CCCN=C(N)N)C(=O)N[C@@H](Cc1ccc(O)cc1)C(=O)N[C@@H](CCCN=C(N)N)C(=O)N[C@@H](CCCCN)C(=O)N[C@@H](CCC(N)=O)C(=O)N[C@@H](CCSC)C(=O)N[C@@H](C)C(=O)N[C@H](C(=O)N[C@@H](CCCCN)C(=O)N[C@@H](CCCCN)C(=O)N[C@@H](Cc1ccc(O)cc1)C(=O)N[C@@H](CC(C)C)C(=O)N[C@@H](C)C(=O)N[C@@H](C)C(=O)N[C@H](C(=O)N[C@@H](CC(C)C)C(N)=O)C(C)C)C(C)C)[C@@H](C)O` [[Phe1]PACAP(1-27)], the pKi is 6.22.
As for `CCC(C)[C@H](NC(=O)CNC(=O)[C@H](CC(=O)O)NC(=O)[C@H](Cc1ccccc1)NC(=O)[C@@H](N)Cc1cnc[nH]1)C(=O)N[C@@H](Cc1ccccc1)C(=O)N[C@H](C(=O)N[C@@H](CC(=O)O)C(=O)N[C@@H](CO)C(=O)N[C@@H](Cc1ccc(O)cc1)C(=O)N[C@@H](CO)C(=O)N[C@@H](CCCN=C(N)N)C(=O)N[C@@H](Cc1ccc(O)cc1)C(=O)N[C@@H](CCCN=C(N)N)C(=O)N[C@@H](CCCCN)C(=O)N[C@@H](CCC(N)=O)C(=O)N[C@@H](CCSC)C(=O)N[C@@H](C)C(=O)N[C@H](C(=O)N[C@@H](CCCCN)C(=O)N[C@@H](CCCCN)C(=O)N[C@@H](Cc1ccc(O)cc1)C(=O)N[C@@H](CC(C)C)C(=O)N[C@@H](C)C(=O)N[C@@H](C)C(=O)N[C@H](C(=O)N[C@@H](CC(C)C)C(N)=O)C(C)C)C(C)C)[C@@H](C)O` (stereo partly drawn) [[Phe2]PACAP(1-27)], the pKi was 7.22.
The molecule `CCC(C)[C@H](NC(=O)CNC(=O)[C@H](CC(=O)O)NC(=O)[C@H](Cc1ccccc1)NC(=O)[C@@H](N)Cc1cnc[nH]1)C(=O)N[C@@H](Cc1ccccc1)C(=O)N[C@H](C(=O)N[C@@H](CC(=O)O)C(=O)N[C@@H](CO)C(=O)N[C@@H](Cc1ccc(O)cc1)C(=O)N[C@@H](CO)C(=O)N[C@@H](CCCN=C(N)N)C(=O)N[C@@H](Cc1ccc(O)cc1)C(=O)N[C@@H](CCCN=C(N)N)C(=O)N[C@@H](CCCCN)C(=O)N[C@@H](CCC(N)=O)C(=O)N[C@@H](CCSC)C(=O)N[C@@H](C)C(=O)N[C@H](C(=O)N[C@@H](CCCCN)C(=O)N[C@@H](CCCCN)C(=O)N[C@@H](Cc1ccc(O)cc1)C(=O)N[C@@H](CC(C)C)C(=O)N[C@@H](C)C(=O)N[C@@H](C)C(=O)N[C@H](C(=O)N[C@@H](CC(C)C)C(=O)NCC(=O)N[C@@H](CCCCN)C(=O)N[C@@H](CCCN=C(N)N)C(=O)N[C@@H](Cc1ccc(O)cc1)C(=O)N[C@@H](CCCCN)C(=O)N[C@@H](CCC(N)=O)C(=O)N[C@@H](CCCN=C(N)N)C(=O)N[C@H](C(=O)N[C@@H](CCCCN)C(=O)N[C@@H](CC(N)=O)C(=O)N[C@@H](CCCCN)C(N)=O)C(C)C)C(C)C)C(C)C)[C@@H](C)O` (stereo partly drawn) [[Phe2]PACAP(1-38)] (H-HFDG[Ile(3ξ)]FTDSYSRYRKQMAVKKYLAAVLGKRYKQRVKNK-NH2) gave a negative logarithm of the Ki (pKi) of 8.70.
For “H-DSYSRYRKQMAVKKYLAAVLGKRYKQRVKNK-NH2 [PACAP(8-38)]”, the pKi was 7.52.
Next, “H-FTDSYSRYRKQMAVKKYLAAVL-NH2 [PACAP(5-27)]”: 6.00; “H-FTDSYSRYRKQMAVKKYLAAVLGKRYKQRV-NH2 [PACAP(6-35)]”: 6.52; H-SRYRKQMAVKKYLAAVL-NH2 [PACAP(11-27)]: 5.22.
Next, “H-SRYRKQMAVKKYLAAVLGKRYKQRVKNK-NH2 [PACAP(11-38)]”: 7.00; H-SYSRYRKQMAVKKYLAAVL-NH2 [PACAP(9-27)]: 5.70; “H-SYSRYRKQMAVKKYLAAVLGKRYKQRVKNK-NH2 [PACAP(9-38)]”: 7.52.
With “H-TDSYSRYRKQMAVKKYLAAVL-NH2 [PACAP(6-27)]” the figure was 5.52; with “H-TDSYSRYRKQMAVKKYLAAVLGKRYKQRVKNK-NH2 [PACAP(7-38)]”, 8.00.
As to “H-YSRYRKQMAVKKYLAAVLGKRYKQRVKNK-NH2 [PACAP(10-38)]”, the pKi was 7.05.

The values above are taken from BindingDB's records for doi:10.1016/s0028-3908(05)80009-7 (Universit&Eacute, 1994).
